Measurements published in paper PMC11137198 (Frontiers in Pharmacology, 2024).
“And” between values parts separate entries of the source, which are not always exact repeats. Equal values may be shown once. Read-outs that look alike come from different tables or passages of the source. Marks after values point to notes of the source that are not given here.

Key:
HAG [1] = target: T1, HAG (Homo sapiens, UniProt P02763); type: physicochemical; details: HAG-bound; for weight of τ1 component / weight of τ2 component / τ2 / τ1: two-exponential fit; for τ2: long component; for τ1: short component; for λmax (fluorescence): 1:1 (10 μM)
T1 construct: α1-acid glycoprotein from human plasma (HAG) were purchased from Sigma-Aldrich; purchased Sigma-Aldrich; host or cells: human plasma
Description: (§1) Steady-state fluorescence spectra were recorded on an Edinburgh FS5 spectrofluorometer, provided with a monochromator in the wavelength range of 200–900 nm using an excitation wavelength of 340 nm at room temperature. Measurements on drug@protein complexes were performed in aerated PBS of 1:1 M ratio mixtures at 10 µM. The absorbance of the samples at the excitation wavelength was kept below 0.1. The fluorescence quantum yields were determined using anthracene in ethanol as reference ([Montalti et al., 2006]).
(§2) Time-resolved fluorescence measurements were performed with an EasyLife X system containing a sample compartment composed of an automated peltier cuvette holder to control the temperature at 24°C, a pulsed LED excitation source and a lifetime detector. The employed LED excitation source was 340 nm, with emission filter of WG370. The fluorescence lifetimes (τF) were obtained upon fitting the decay traces by a non-linear fitting/deconvolution procedure F(t) = Σa i ·exp(-t/τ i ) by means of a one- or two-exponential function, depending on the investigated system. All spectroscopic measurements were done in 10 × 10 mm^2 quartz cuvettes at room temperature.
The insets show the normalized spectra. For ligand@protein complexes, solutions were at 1:1 M ratio (10 μM).

HAG [2] = system: HAG; set-up: species or system human; details: binding constant within HAG, PBS
From the text: (§3) To calculate the K B values by means of UV absorption spectroscopy, the same Eq. 1 has been applied but using A instead of F.
Competing interactions on mixtures containing the drug and a metabolite in the presence of HAG confirmed the consistency of the determined binding constants.

[3] = set-up: method as in Tamarit et al., 2021; Tamarit et al., 2022; details: cyclohexane, ref Tamarit et al., 2021, 2022; cited from earlier work
HSA and HAG = assay: Competing interactions in an equimolar mixture of the two proteins (fluorescence); type: binding, human; details: fluorescence emission, λexc = 340 nm
cellular milieu = system: cellular milieu; set-up: method as in El Ouardi et al., 2023; details: UVA light, biological media; ref El Ouardi et al., 2023; cited from earlier work
HSA [4] = target: T2, HSA (Homo sapiens, UniProt P02768); assay: Binding constant (K B) by modified Scatchard analysis from UV absorption and fluorescence; details: binding constant within HSA, PBS
T2 construct: purchased Sigma-Aldrich
Description: as §3
An additional point to address is the strength of interaction of the drug and its two metabolites within HSA, since it is key for their transport to the specific targets and for their toxicological activity. […] To this end, a modified Scatchard analysis was performed (Supplementary Figures S6–S8).

HSA [5] = target: T2, HSA; details: HSA-bound, λexc = 340 nm, PBS; ref 36 (Tamarit et al., 2022); cited from earlier work
HSA [6] = target: T2, HSA; assay: Steady-state and time-resolved fluorescence of ligand@HSA complexes; type: physicochemical; details: HSA-bound
Description: as §1, §2
FIGURE 2 (A) Fluorescence spectra for GFT-M2 in PBS (gray) and for GFT-M2@HSA (green). […] Measurements were performed at λexc = 340 nm in PBS; for ligand@HSA complexes, solutions were at 1:1 M ratio (10 μM).

[7] = Fluorescence of free ligand in organic solvents or PBS; type: physicochemical
Description: as §1, §2
An important point to discuss is the low fluorescence yield value of GFT-M2 within the protein cavities (ϕF ∼ 0.01) compared with that obtained in cyclohexane (ϕF ∼ 0.13). […] It is worth to mention that this is a dynamic process that lowers τF values ([Tamarit et al., 2021]; [Tamarit et al., 2022]). With the aim of investigating this possibility for GFT-M2, fluorescence measurements were performed in the non-polar solvent toluene in the presence of increasing amounts of Tyr and Trp (due to solubility requirements, the N-acetyl methyl ester amino acid derivatives, namely, NAc-TyrMe or NAc-TrpMe, were used). […] It is worth to mention that using either Tyr or Trp as quenchers, a new band with λmax ∼ 490 nm arose at high amino acid concentrations (insets of Figure 3); this is attributed to emission from phenolate-like species involving interaction between hydrogen-bonded GFT-M2 and Tyr (or Trp) in the ground state. However, and as discussed above, these species have not been observed in the supramolecular GFT-M2@HSA complex, since LE states predominate. Therefore, it would exist an additional deactivation route for ^1GFT-M2* within the protein, which would be strongly affected by the conformational arrangement of the metabolite in the binding sites (see the discussion on MD simulations).

[8] = λexc = 340 nm, PBS, 1:1 (10 μM)

T2 sequence (P02768 25-609): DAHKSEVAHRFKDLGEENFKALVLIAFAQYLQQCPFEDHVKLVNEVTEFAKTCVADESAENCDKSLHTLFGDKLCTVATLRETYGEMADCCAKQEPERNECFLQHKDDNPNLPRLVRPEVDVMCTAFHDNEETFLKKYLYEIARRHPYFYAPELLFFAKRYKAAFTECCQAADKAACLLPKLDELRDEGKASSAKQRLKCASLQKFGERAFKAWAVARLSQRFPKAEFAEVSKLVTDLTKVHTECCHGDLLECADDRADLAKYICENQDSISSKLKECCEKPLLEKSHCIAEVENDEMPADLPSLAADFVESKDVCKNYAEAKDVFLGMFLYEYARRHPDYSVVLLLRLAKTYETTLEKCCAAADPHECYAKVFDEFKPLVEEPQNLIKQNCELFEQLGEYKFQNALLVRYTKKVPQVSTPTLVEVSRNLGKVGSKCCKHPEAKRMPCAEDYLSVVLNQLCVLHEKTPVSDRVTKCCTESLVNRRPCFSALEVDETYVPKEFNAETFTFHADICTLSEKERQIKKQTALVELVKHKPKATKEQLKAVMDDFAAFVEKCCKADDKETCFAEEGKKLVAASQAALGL
T1 sequence (P02763 19-201): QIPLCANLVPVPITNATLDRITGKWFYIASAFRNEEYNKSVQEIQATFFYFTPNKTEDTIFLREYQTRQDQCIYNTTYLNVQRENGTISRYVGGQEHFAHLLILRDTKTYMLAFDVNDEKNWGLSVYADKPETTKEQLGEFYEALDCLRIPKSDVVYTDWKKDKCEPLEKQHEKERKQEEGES

With COc1cc2ncnc(Nc3ccc(F)c(Cl)c3)c2cc1OCCCN1CCOCC1 [GFT, gefitinib, reference compound] the ϕF (HAG [1]; λexc = 340 nm, PBS) was 0.03, the τF (HAG [1]; λexc = 340 nm, PBS, one-exponential fit, or mean lifetime where marked d) was 0.8 ns and the “K B” value (HAG [2]) was 1.2 × 10^5 M^-1 and 1.2 ± 0.08 × 10^5 M^-1. The ϕF [3] was about 0.19.

With COc1cc2ncnc(Nc3ccc(F)c(Cl)c3)c2cc1O [GFT-M1, O-desmorpholinopropyl gefitinib] the “relative affinity in equimolar mixture of HSA and HAG” value (HSA and HAG) was “higher affinity to HSA”, the “weight of τ1 component” value (HAG [1]) was 28% and the “weight of τ2 component” value (HAG [1]) was 72%. For the same compound, the τ2 (HAG [1]) was about 3.1 ns, the τ1 (HAG [1]) was about 0.5 ns and the ϕF (HAG [1]; λexc = 340 nm, PBS) was 0.04. The “λmax (fluorescence)” value (HAG [1]; λexc = 340 nm, PBS) was about 442 nm, the “K B” value (HAG [2]) was 9.1 ± 0.32 × 10^4 M^-1 and the phototoxicity (cellular milieu) was “highest phototoxicity”. For the same compound, the “K B” value (HSA [4]) was 1.2 ± 0.06 × 10^5 M^-1, the τF (HSA [5]) was 2.5 ^b ns and the ϕF (HSA [5]) was 0.15 ^b.

In the case of Oc1cc2ncnc(Nc3ccc(F)c(Cl)c3)c2cc1OCCCN1CCOCC1 [GFT-M2, O-desmethyl gefitinib], the “weight of τ1 component” value (HAG [1]) is reported as 35%, the “weight of τ2 component” value (HAG [1]) is reported as 65% and the τ2 (HAG [1]) is reported as 4.1 ns. The τ1 (HAG [1]) was 0.7 ns, the ϕF (HAG [1]; λexc = 340 nm, PBS) was 0.03 and the “λmax (fluorescence)” value (HAG [1]; λexc = 340 nm, PBS) was about 446 nm. The “shoulder detected in the fluorescence spectrum” value (HAG [1]; λexc = 340 nm, PBS, value between brackets) was about 388 nm, the “K B” value (HAG [2]) was 1.5 × 10^5 M^-1 and 1.5 ± 0.05 × 10^5 M^-1 and the phototoxicity (cellular milieu) was “much less phototoxic”. For the same compound, the “weight of τ1 component” value (HSA [6]; two-exponential fit) was 75%, the “weight of τ2 component” value (HSA [6]; two-exponential fit) was 25% and the τ2 (HSA [6]; two-exponential fit, long component) was 4.9 ns. The τ1 (HSA [6]; two-exponential fit, short component) was 0.6 ns, the “λmax (fluorescence)” value (HSA [6]; [8]) was about 388 nm and the ϕF (HSA [6]; [8]) was about 0.01. The τF (HSA [6]; λexc = 340 nm, PBS, mean lifetime <τF> = a1τ1 + a2τ2) was 1.0^d ns, the “K B” value (HSA [4]) was 1.8 ± 0.16 × 10^5 M^-1 and the ϕF ([7]; cyclohexane) was about 0.13. The fluorescence maximum ([7]; free in the bulk solution (PBS), λexc = 340 nm) was “ca. 440 nm”, the “fluorescence maximum λmax” value ([7]; non-polar solvents) was “ca. 390 nm” and the “λmax of new band at high amino acid concentrations” value ([7]; toluene, Tyr or Trp as quenchers, phenolate-like species) was about 490 nm. For the same compound, the “fluorescence lifetime of the LE singlet state” value ([7]; toluene, with NAc-TyrMe or NAc-TrpMe at molar ratios 1:50 to 1:300) was “ca. 2.42 ns”.
